Results reported in patent US12551479B2, “Acyl-protein thioesterase inhibitor for the treatment and/or prevention of Huntington's disease” (UNIVERSITÉ GRENOBLE ALPES, priority 2019, dated 2026).

Legend:
[1] = tested on: Hdh^CAG140/+ mice; assay: Horizontal Ladder test; format: in vivo, mouse; details: Hdh^CAG/+ mice, 0.3 mg/kg/day subcutaneous infusion; values similar to wild-type
Method: (§1) Mice littermates were grouped into mixed treatment groups. Males and females were 6 months of age at the beginning of the treatment. For each specific test, all experimental groups were tested on the same day, during the light phase and between Days 16 and 28 of treatment. Prior to testing, mice were acclimatized to the test room for a period of 30 minutes. Treatments were randomly assigned and behavioral tests were performed 12 days before the end of the delivery of the treatment. […] Mice were excluded from analysis if their performance was calculated as a significant outlier by the Grubb test. One mouse was excluded based on these criteria. Mouse weights were measured prior to the start of treatment and until the end of testing.
A horizontal ladder is used to assess forelimb and hindlimb placement and coordination. The horizontal ladder is composed of two clear Plexiglas walls (69.50×15 cm) containing metal rungs (0.2 cm diameter) irregularly spaced (between 0.5 and 2 cm apart). Mice were habituated to walk on a horizontal ladder during two consecutive days (3 trials per day). Then the mice were tested (3 trials) with a different pattern than the two days of habituation. Test trials were videorecorded, and the motor performance as well as the latency to complete the task were quantified. Data are expressed as the average of the 3 trials.

[2] = tested on: cortical neurons from WT and Hdh^CAG/+ mice; assay: BDNF-mCherry axonal transport in corticostriatal network on microfluidic device; format: cell-based, mouse
Method: Referring to FIG. 3A, the inventors have reproduced the corticostriatal network in vitro on a microfluidic device consisting of two neuronal chambers that are connected via microchannels. Experiments are performed over a period of time ranging from 2 to 12 days in vitro (Days in vitro), i.e. DIV2 to DIV12, and a fixation/acquisition at DIV12.
For striatal StHdh cells, acute treatment was performed at 10 μM for 1 hour before and during the acquisition time. For neurons within the microchambers, treatments were started at DIV2 until DIV12 every day at 1 μM in each compartment of the microfluidic device.
The inventors then investigated whether ML-348 is able to restore dysfunctions of the corticostriatal network in Huntington's disease. Indeed, corticostriatal circuit is particularly altered in Huntington's disease, which manifests itself by a dysfunction and a degeneration of both the striatal neurons and their corticostriatal afferences. They developed a microfluidic-based approach that enables the reconstruction of a time- and space-controlled neuronal network compatible with fast spinning confocal videomicroscopy. This system uses a silicon polymer-based microfluidic device composed of two fluidically-isolated neuronal chambers that are connected via a set of thin microchannels through which neurites can grow and contact each other in an intermediate synaptic compartment. Using primary neuron cultures, they reconstituted a corticostriatal network in which cortical neurons project to striatal target neurons through oriented axodendritic connections (FIG. 3A). These devices are compatible with drug treatment and therefore can be used to test pharmacological agents in vitro on this functional circuit.
Cortical neurons from WT and Hdh^CAG/+ mice were infected with BDNF-mCherry lentivirus and acquisitions were performed at Day 12 in the distal part of the long microchannels to analyze axonal transport of BDNF (FIG. 3B). As expected, defects in axonal transport in HD (Huntington's disease) neurons were identified for both the anterograde and retrograde transport velocities, and also in the number of vesicles travelling along the microtubules (FIG. 3C-3E). These effects lead to a reduction of the linear net flux with no impact one the directionality of the vesicles (FIGS. 3F and 3G).

[3] = tested on: Hdh^CAG140/+ mice; assay: Novelty-Suppressed Feeding test; format: in vivo, mouse; details: Hdh^CAG/+ mice, 0.3 mg/kg/day subcutaneous infusion
Method: as §1
The test was performed as in Pla et al., 2013. Animals were food-deprived during 24 hours to increase motivation to consume food. On the day of testing, mice were placed within the testing apparatus, which consisted of a plastic box (50 cm×30 cm×15 cm), the floor of which covered with wooden bedding. Mice were videorecorded and allowed to freely explore the area until they eat the food pellet or for a maximum of 10 minutes. The mice were considered to eat the pellet when they bite the pellet while sitting comfortably.

[4] = Pharmacokinetics after intraperitoneal injection, plasma and brain by LC-MS/MS; format: in vivo; details: mice, 2 mg/kg intraperitoneal
Method: The ability of the ML-348 molecule to freely cross the blood brain barrier is an additional argument towards the efficacy of the molecule in vivo in mice.
Plasma proteins were precipitated by adding 800 μL acetonitrile into 400 μL of sample. Brains were ground into 400 μL H2O before adding 800 μL acetonitrile. Samples were centrifuged to remove insoluble residues at 15.000 g for 5 minutes at 16° C. Supernatants were analyzed by LC-MS/MS. LC-MS/MS was assessed by high-performance liquid chromatography (UHPC) coupled with a triple quadrupole (Shimadzu LC-MS 8030). Analyses were performed from 3 mice for each time point.
Before investigating ML-348 in vivo, the inventors first evaluated the pharmacokinetics of the molecule. […] They then evaluated the efficacy of the molecule to increase brain palmitoylation level 30 minutes after injection. For this purpose, they performed an Acyl-Biotin-Exchange (ABE) assay to biotinylate palmitoylated proteins before their immunoprecipitation with streptavidin-coated beads (FIG. 4D).

[5] = Hdh^CAG/+ network, 1 μM daily DIV2 to DIV12

## O=C(CN1CCN(C(=O)c2ccco2)CC1)Nc1cc(C(F)(F)F)ccc1Cl [ML-348]
[1]
  average error score: significant improvement
  average time to cross the horizontal ladder: significant improvement
[2]; [5]
  anterograde and retrograde transport velocities of BDNF-mCherry: restored to values approximately equal to those of the wild type
  linear net flow of BDNF-mCherry vesicles: restored to values approximately equal to those of the wild type
  number of anterograde and retrograde vesicles moving over 100 μm for 30 seconds: restored to values approximately equal to those of the wild type
[2]; WT neurons, 1 μM daily
  effect on BDNF trafficking in WT neurons: inhibitory effect on BDNF trafficking
[3]
  latency to feeding in a new environment: restores the behavior of Hdh^CAG/+ mice to that of wild-type mice
[4]; 30, 60 and 180 minutes
  crossing of the blood brain barrier ([Brain]/[Plasma] values): effectively crosses the blood brain barrier
[4]; 60 minutes after injection
  degradation after injection (plasma and brain levels): rapidly degraded
